Assay: molar heat capacity at constant pressure
Conditions: 101.33 kPa

O=P([O-])([O-])[O-].[Cs+].[Ni+2] [cesium nickel monophosphate]
Conditions | molar heat capacity at constant pressure [J/K/mol]
344.8 K, Crystal 2, DSC | 162.96
345.8 K, Crystal 2, DSC | 163.79
346.8 K, Crystal 2, DSC | 163.79
347.8 K, Crystal 2, DSC | 163.79
348.8 K, Crystal 2, DSC | 164.63
349.8 K, Crystal 2, DSC | 165.46
350 K, Crystal 2, Small (less than 1 g) adiabatic calorimetry | 165.04
350.8 K, Crystal 2, DSC | 165.46
351.8 K, Crystal 2, DSC | 165.46
352.8 K, Crystal 2, DSC | 166.29
353.8 K, Crystal 2, DSC | 167.12
354.8 K, Crystal 2, DSC | 167.12
355.8 K, Crystal 2, DSC | 167.12
356.8 K, Crystal 2, DSC | 167.95
357.8 K, Crystal 2, DSC | 167.95
358.8 K, Crystal 2, DSC | 168.78
359.8 K, Crystal 2, DSC | 168.78
360 K, Crystal 2, Small (less than 1 g) adiabatic calorimetry | 169.2
360.8 K, Crystal 2, DSC | 169.61
361.8 K, Crystal 2, DSC | 170.45
362.8 K, Crystal 2, DSC | 170.45
363.8 K, Crystal 2, DSC | 170.45
364.8 K, Crystal 2, DSC | 171.28
365.8 K, Crystal 2, DSC | 172.11
366.8 K, Crystal 2, DSC | 172.11
367.8 K, Crystal 2, DSC | 172.94
368.8 K, Crystal 2, DSC | 172.94
369.8 K, Crystal 2, DSC | 172.94
370 K, Crystal 2, Small (less than 1 g) adiabatic calorimetry | 173.36
370.8 K, Crystal 2, DSC | 173.77
371.8 K, Crystal 2, DSC | 173.77
372.8 K, Crystal 2, DSC | 174.6
373.8 K, Crystal 2, DSC | 175.44
374.8 K, Crystal 2, DSC | 177.1
376.3 K, Crystal 2, DSC | 180.42
380 K, Crystal 2, Small (less than 1 g) adiabatic calorimetry | 176.27
382.8 K, Crystal 1, DSC | 178.26
382.8 K, Crystal 2, Small (less than 1 g) adiabatic calorimetry | 176.68
387.8 K, Crystal 1, DSC | 183.75
388.8 K, Crystal 1, DSC | 179.59
389.8 K, Crystal 1, DSC | 177.93
390 K, Crystal 1, DSC | 177.1
390.8 K, Crystal 1, DSC | 177.1
391.8 K, Crystal 1, DSC | 177.1
392.8 K, Crystal 1, DSC | 177.1
393.8 K, Crystal 1, DSC | 177.1
394.8 K, Crystal 1, DSC | 176.27
395.8 K, Crystal 1, DSC | 177.1
396.8 K, Crystal 1, DSC | 176.27
397.8 K, Crystal 1, DSC | 176.27
398.8 K, Crystal 1, DSC | 176.27
399.8 K, Crystal 1, DSC | 176.27
400 K, Crystal 1, DSC | 175.85
400.8 K, Crystal 1, DSC | 175.44
402.8 K, Crystal 1, DSC | 175.44
404.8 K, Crystal 1, DSC | 174.6
407.1 K, Crystal 1, DSC | 174.6
408.8 K, Crystal 1, DSC | 174.6
410 K, Crystal 1, DSC | 175.02
410.8 K, Crystal 1, DSC | 174.6
412.8 K, Crystal 1, DSC | 174.6
414.8 K, Crystal 1, DSC | 174.6
416.8 K, Crystal 1, DSC | 174.6
418.8 K, Crystal 1, DSC | 174.6
420 K, Crystal 1, DSC | 174.52
420.8 K, Crystal 1, DSC | 174.6
422.8 K, Crystal 1, DSC | 174.6
424.8 K, Crystal 1, DSC | 174.6
426.8 K, Crystal 1, DSC | 174.6
428.8 K, Crystal 1, DSC | 174.6
430 K, Crystal 1, DSC | 174.27
430.8 K, Crystal 1, DSC | 174.6
432.8 K, Crystal 1, DSC | 174.6
434.8 K, Crystal 1, DSC | 174.6
436.8 K, Crystal 1, DSC | 174.6
438.8 K, Crystal 1, DSC | 174.6
440 K, Crystal 1, DSC | 174.27
440.8 K, Crystal 1, DSC | 173.77
442.8 K, Crystal 1, DSC | 174.6
444.8 K, Crystal 1, DSC | 174.6
446.8 K, Crystal 1, DSC | 174.6
448.8 K, Crystal 1, DSC | 173.77
450 K, Crystal 1, DSC | 174.44
450.8 K, Crystal 1, DSC | 173.77
452.8 K, Crystal 1, DSC | 173.77
454.8 K, Crystal 1, DSC | 174.6
456.8 K, Crystal 1, DSC | 173.77
458.8 K, Crystal 1, DSC | 174.6
460 K, Crystal 1, DSC | 174.77
460.8 K, Crystal 1, DSC | 174.6
462.8 K, Crystal 1, DSC | 174.6
464.8 K, Crystal 1, DSC | 174.6
466.8 K, Crystal 1, DSC | 174.6
468.8 K, Crystal 1, DSC | 175.44
470 K, Crystal 1, DSC | 175.19
470.8 K, Crystal 1, DSC | 175.44
472.8 K, Crystal 1, DSC | 175.44
474.8 K, Crystal 1, DSC | 175.44
476.8 K, Crystal 1, DSC | 176.27
478.8 K, Crystal 1, DSC | 176.27
480 K, Crystal 1, DSC | 175.68
480.8 K, Crystal 1, DSC | 176.27
482.8 K, Crystal 1, DSC | 176.27
484.8 K, Crystal 1, DSC | 176.27
486.8 K, Crystal 1, DSC | 176.27
488.8 K, Crystal 1, DSC | 176.27
490 K, Crystal 1, DSC | 176.18
490.8 K, Crystal 1, DSC | 177.1
492.8 K, Crystal 1, DSC | 177.1
494.8 K, Crystal 1, DSC | 177.1
496.8 K, Crystal 1, DSC | 177.1
498.8 K, Crystal 1, DSC | 177.1
500 K, Crystal 1, DSC | 176.77
500.8 K, Crystal 1, DSC | 177.1
502.8 K, Crystal 1, DSC | 177.1
504.8 K, Crystal 1, DSC | 177.1
506.8 K, Crystal 1, DSC | 177.1
508.8 K, Crystal 1, DSC | 177.1
510 K, Crystal 1, DSC | 177.26
510.8 K, Crystal 1, DSC | 177.1
512.8 K, Crystal 1, DSC | 177.1
514.8 K, Crystal 1, DSC | 177.1
516.8 K, Crystal 1, DSC | 177.1
518.8 K, Crystal 1, DSC | 177.1
520 K, Crystal 1, DSC | 177.76
520.8 K, Crystal 1, DSC | 177.93
522.8 K, Crystal 1, DSC | 177.93
524.8 K, Crystal 1, DSC | 177.93
526.8 K, Crystal 1, DSC | 177.93
528.8 K, Crystal 1, DSC | 177.93
530 K, Crystal 1, DSC | 178.26
530.8 K, Crystal 1, DSC | 177.93
532.8 K, Crystal 1, DSC | 177.93
534.8 K, Crystal 1, DSC | 177.93
536.8 K, Crystal 1, DSC | 177.93
538.8 K, Crystal 1, DSC | 178.76
540 K, Crystal 1, DSC | 178.76
540.8 K, Crystal 1, DSC | 178.76
542.8 K, Crystal 1, DSC | 178.76
544.8 K, Crystal 1, DSC | 178.76
546.8 K, Crystal 1, DSC | 178.76
548.8 K, Crystal 1, DSC | 178.76
550 K, Crystal 1, DSC | 179.18
550.8 K, Crystal 1, DSC | 178.76
552.8 K, Crystal 1, DSC | 178.76
554.8 K, Crystal 1, DSC | 179.59
556.8 K, Crystal 1, DSC | 179.59
558.8 K, Crystal 1, DSC | 179.59
560 K, Crystal 1, DSC | 179.59
560.8 K, Crystal 1, DSC | 179.59
562.8 K, Crystal 1, DSC | 179.59
564.8 K, Crystal 1, DSC | 179.59
566.8 K, Crystal 1, DSC | 180.42
568.8 K, Crystal 1, DSC | 180.42
570 K, Crystal 1, DSC | 180.01
570.8 K, Crystal 1, DSC | 180.42
572.8 K, Crystal 1, DSC | 180.42
574.8 K, Crystal 1, DSC | 180.42
576.8 K, Crystal 1, DSC | 180.42
578.8 K, Crystal 1, DSC | 180.42
580 K, Crystal 1, DSC | 180.34
580.8 K, Crystal 1, DSC | 180.42
582.8 K, Crystal 1, DSC | 180.42
584.8 K, Crystal 1, DSC | 180.42
586.8 K, Crystal 1, DSC | 180.42
588.8 K, Crystal 1, DSC | 180.42
590 K, Crystal 1, DSC | 180.76
590.8 K, Crystal 1, DSC | 181.26
592.8 K, Crystal 1, DSC | 181.26
594.8 K, Crystal 1, DSC | 181.26
596.8 K, Crystal 1, DSC | 181.26
598.8 K, Crystal 1, DSC | 181.26
600 K, Crystal 1, DSC | 181.26
600.8 K, Crystal 1, DSC | 181.26
602.8 K, Crystal 1, DSC | 181.26
604.8 K, Crystal 1, DSC | 181.26
606.8 K, Crystal 1, DSC | 181.26
608.8 K, Crystal 1, DSC | 182.09
610 K, Crystal 1, DSC | 181.84
610.8 K, Crystal 1, DSC | 182.09
612.8 K, Crystal 1, DSC | 182.09
614.8 K, Crystal 1, DSC | 182.09
616.8 K, Crystal 1, DSC | 182.09
618.8 K, Crystal 1, DSC | 182.09
620 K, Crystal 1, DSC | 182.5
620.8 K, Crystal 1, DSC | 182.09
622.8 K, Crystal 1, DSC | 182.92
624.8 K, Crystal 1, DSC | 182.92
626.8 K, Crystal 1, DSC | 182.92
628.8 K, Crystal 1, DSC | 182.92
630 K, Crystal 1, DSC | 183.25
630.8 K, Crystal 1, DSC | 182.92
632.8 K, Crystal 1, DSC | 183.75
634.8 K, Crystal 1, DSC | 183.75
636.8 K, Crystal 1, DSC | 183.75
638.8 K, Crystal 1, DSC | 184.58
640 K, Crystal 1, DSC | 184.33
640.8 K, Crystal 1, DSC | 184.58
642.8 K, Crystal 1, DSC | 184.58
644.8 K, Crystal 1, DSC | 184.58
646.8 K, Crystal 1, DSC | 185.41
648.8 K, Crystal 1, DSC | 185.41
650 K, Crystal 1, DSC | 185.58
